Assay results reported in patent publication US12168664B2, “Triazolopyrimidines, their preparation and use” (THE TRUSTEES OF COLUMBIA UNIVERSITY IN THE CITY OF NEW YORK, priority 2018, dated 2024).

Tests used:
CYP2C9 = CYP2C9 (Homo sapiens (Human), UniProt P11712); experiment: CYP inhibition, fluorescent, CYP2C9; assay type: in vitro ADME
Protocol: (§1) The compounds listed below were tested in various metabolic stability and CYP inhibition assays.

CYP3A4 = CYP3A4 (Homo sapiens (Human), UniProt P08684); experiment: CYP inhibition, fluorescent, CYP3A4; assay type: in vitro ADME
CYP3A4, sequence (P08684 whole entry, species assumed): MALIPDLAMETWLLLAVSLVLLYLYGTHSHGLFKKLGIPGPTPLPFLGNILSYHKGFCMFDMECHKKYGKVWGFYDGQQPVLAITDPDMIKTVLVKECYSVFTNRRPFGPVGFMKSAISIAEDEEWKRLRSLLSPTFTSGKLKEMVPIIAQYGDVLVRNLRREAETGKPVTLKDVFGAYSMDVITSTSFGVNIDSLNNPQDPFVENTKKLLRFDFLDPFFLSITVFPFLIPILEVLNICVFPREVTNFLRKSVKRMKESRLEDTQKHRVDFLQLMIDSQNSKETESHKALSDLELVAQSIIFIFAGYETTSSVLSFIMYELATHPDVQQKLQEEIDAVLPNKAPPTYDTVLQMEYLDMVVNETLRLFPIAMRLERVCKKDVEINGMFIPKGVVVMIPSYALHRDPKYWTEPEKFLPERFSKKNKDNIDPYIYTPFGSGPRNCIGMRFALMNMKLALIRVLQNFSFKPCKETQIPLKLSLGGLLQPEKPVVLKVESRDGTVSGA
Protocol: as §1

human RBP4 = human RBP4 (Homo sapiens (Human), UniProt P02753); experiment: SPA binding assay for RBP4 (scintillation proximity, 3H-retinol displacement); conditions: 10 nM 3H-retinol, 50 nM biotinylated RBP4
Protocol: Scintillation Proximity RBP4 Binding Assay
Untagged human RBP4 purified from the urine of tubular proteinuria patients was purchased from Fitzgerald Industries International. It was biotinylated using the EZ-Link Sulfo-NHS-LC-Biotinylation kit from Pierce following the manufacturer's recommendations. […] Nonspecific binding was determined in the presence of 20 μM of unlabeled retinol. The reaction mix was assembled in the dark under dim red light. The plates were sealed with clear tape (TopSeal-A: 96-well microplate, PerkinElmer), wrapped in the aluminum foil, and allowed to equilibrate 6 hours at room temperature followed by overnight incubation at +4° C. Radiocounts were measured using a TopCount NXT counter (Packard Instrument Company).
The compounds listed below were tested in two in vitro assays, RBP4 binding (SPA) and retinol-dependent RBP4-TTR interaction (HTRF) (Table 1).

serum RBP4 [1] = target: T1, serum RBP4 (Mus musculus (Mouse), UniProt Q00724); experiment: Serum RBP4 reduction in Balb/c mice after a single oral administration; assay type: in vivo
Protocol: Pharmacodynamic Studies of 7a and 7p in Balb/c Mice Following a Single Oral Administration
Animal protocols were approved by the Institutional Animal Care and Use Committee of Columbia University and complied with guidelines set forth by The Association for Research in Vision and Ophthalmology. Compounds were prepared as a suspension in 0.9% NaCl, 2% Tween 80 for oral administration. Compounds were administered to Balb/c mice in a volume of 100 μL through oral gavage. The doses used were 15 mg/kg, 25 mg/kg and 35 mg/kg for 7a while two doses, 25 mg/kg and 35 mg/kg, were tested for DENG-31(FFB-0000082). Blood samples were collected at pre-dose and 1 hr, 2 hr, 4 hr, 6 hr, 8 hr, and 24 hr timepoints. Whole blood was drawn into a centrifuge tube and was let clot at room temperature for 30 min followed by centrifugation at 2,000×g for 15 minutes at +4° C. to collect serum. Serum RBP4 was measured using the RBP4 (mouse/rat) dual ELISA kit (AdipoGen) following the manufacturer's instructions.
In order to attain this objective, the effect of oral compound administration was studied in mice. Three doses of compound 7a and two doses of 7p were tested in Balb/c mice assay for reduction of serum RBP4.

serum RBP4 [2] = target: T1, serum RBP4; experiment: Serum RBP4 in Abca4−/− mice after 8-week dosing in chow; assay type: in vivo; conditions: 35 mg/kg daily oral in chow, 8 weeks
Protocol: (§2) Effect of 7a on accumulation of N-retinylidene-N-retinylethanolamine (A2E) in Eyes of the Abca4^−/− Mice
(§3) Animal protocols were approved by the Institutional Animal Care and Use Committee of Columbia University and complied with guidelines set forth by The Association for Research in Vision and Ophthalmology. […] Abca4^−/− (knockout) and C57BL/6J (wild-type control) mice were raised under 12 h on-off cyclic lighting with an in-cage illuminance of 30-50 lux. For long-term oral dosing 7a was formulated into Purina 5035 rodent chow at Research Diets, Inc. (New Brunswick, NJ) to ensure consistent 35 mg/kg daily oral dosing. Animals were administered the AKR-XI-85-containing chow for 8 weeks. Blood samples were collected at baseline and at the end of the dosing period for serum RBP4 measurements. Whole blood was drawn into a centrifuge tube and was let clot at room temperature for 30 min followed by centrifugation at 2,000×g for 15 minutes at +4° C. to collect serum. Serum RBP4 was measured using the RBP4 (mouse/rat) dual ELISA kit (AdipoGen) following the manufacturer's instructions.
To assess pre-clinical efficacy of 7a in the mouse Abca4^−/− model, the compound was formulated into a standard mouse chow to provide the daily oral dosing of 35 mg/kg. Long-term 8-week dosing of the compound formulated into a chow was conducted in Abca4^−/− mice. […]

CYP2D6 = CYP2D6 (Homo sapiens (Human), UniProt P10635); experiment: CYP inhibition, fluorescent, CYP2D6; assay type: in vitro ADME
CYP2D6, sequence (P10635 whole entry, species assumed): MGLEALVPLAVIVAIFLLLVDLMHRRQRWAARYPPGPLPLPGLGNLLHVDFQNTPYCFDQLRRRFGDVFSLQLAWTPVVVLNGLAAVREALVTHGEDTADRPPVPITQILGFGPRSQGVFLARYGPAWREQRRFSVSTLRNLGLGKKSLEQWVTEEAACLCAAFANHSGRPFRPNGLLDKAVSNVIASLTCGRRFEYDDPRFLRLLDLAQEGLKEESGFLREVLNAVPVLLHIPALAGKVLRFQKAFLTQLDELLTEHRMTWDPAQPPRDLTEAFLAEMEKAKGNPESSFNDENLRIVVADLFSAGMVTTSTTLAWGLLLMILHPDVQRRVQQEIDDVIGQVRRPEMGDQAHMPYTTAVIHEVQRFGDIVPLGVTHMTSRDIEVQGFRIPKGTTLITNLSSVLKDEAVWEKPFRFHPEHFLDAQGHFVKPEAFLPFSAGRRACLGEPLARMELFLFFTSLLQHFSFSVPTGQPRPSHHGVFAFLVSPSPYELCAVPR
Protocol: as §1

CYP2C19 = CYP2C19 (Homo sapiens (Human), UniProt P33261); experiment: CYP inhibition, fluorescent, CYP2C19; assay type: in vitro ADME
CYP2C19, sequence (P33261 whole entry, species assumed): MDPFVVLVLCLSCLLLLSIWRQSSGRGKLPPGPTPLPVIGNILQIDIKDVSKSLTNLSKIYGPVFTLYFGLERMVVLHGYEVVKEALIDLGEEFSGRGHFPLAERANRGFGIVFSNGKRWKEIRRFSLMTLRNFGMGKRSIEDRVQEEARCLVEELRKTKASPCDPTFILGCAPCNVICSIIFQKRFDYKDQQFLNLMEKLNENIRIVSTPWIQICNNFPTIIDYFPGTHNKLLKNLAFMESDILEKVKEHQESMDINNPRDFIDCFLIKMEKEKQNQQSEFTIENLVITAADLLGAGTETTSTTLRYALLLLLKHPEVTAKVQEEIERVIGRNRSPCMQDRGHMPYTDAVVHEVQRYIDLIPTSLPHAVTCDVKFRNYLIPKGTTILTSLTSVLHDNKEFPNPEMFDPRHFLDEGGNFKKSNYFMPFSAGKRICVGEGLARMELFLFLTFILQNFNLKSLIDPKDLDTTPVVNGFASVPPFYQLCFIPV
Protocol: as §1

A2E = A2E (bisretinoid) accumulation in eyes of Abca4−/− mice, HPLC of eyecups; assay type: in vivo; conditions: 35 mg/kg daily oral in chow, 8 weeks, p=0.0007
Protocol: as §2
as §3, with “Blood samples were collected at baseline and at the end of the dosing period for serum RBP4 measurements. Whole blood was drawn into a centrifuge tube and was let clot at room temperature for 30 min followed by centrifugation at 2,000×g for 15 minutes at +4° C. to collect serum.” left out
After the completion of dosing, animals were euthanized and posterior eyecups consisting of sclera, choroid and RPE were prepared from enucleated eyes according to the standard techniques. […] A previously established HPLC method (Journal of Biological Chemistry, 275, 29354-29360) was utilized for quantifying A2E in mouse eyecups. Quantitation of A2E was conducted by manually integrating the A2E peak (approximately 12-min elution time) which was identified by the co-elution with the synthetic A2E standard and by characteristic absorbance spectrum. […]

CYP2C9, sequence (P11712 whole entry, species assumed): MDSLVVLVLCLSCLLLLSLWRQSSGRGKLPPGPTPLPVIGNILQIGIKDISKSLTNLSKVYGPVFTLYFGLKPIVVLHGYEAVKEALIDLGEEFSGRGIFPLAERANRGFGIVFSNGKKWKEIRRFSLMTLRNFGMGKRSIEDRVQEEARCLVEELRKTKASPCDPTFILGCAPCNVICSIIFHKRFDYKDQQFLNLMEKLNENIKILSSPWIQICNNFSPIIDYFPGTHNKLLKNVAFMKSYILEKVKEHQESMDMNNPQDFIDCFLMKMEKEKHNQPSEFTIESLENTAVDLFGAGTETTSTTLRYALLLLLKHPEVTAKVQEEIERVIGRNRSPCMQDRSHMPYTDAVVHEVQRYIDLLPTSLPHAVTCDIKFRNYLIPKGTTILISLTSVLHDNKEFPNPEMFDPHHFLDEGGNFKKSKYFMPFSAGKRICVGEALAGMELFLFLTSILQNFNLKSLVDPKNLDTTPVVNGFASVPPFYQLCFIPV

`O=C(c1nc2ncccn2n1)N1C[C@H]2C[C@@H](c3ccccc3C(F)(F)F)C[C@H]2C1` [Compound 7a] showed an IC50 (CYP2C9) greater than 100 µM, an IC50 (CYP3A4) greater than 100 µM and an IC50 (human RBP4) of 0.023 µM. For the same molecule, the “maximum serum RBP4 reduction” value (serum RBP4 [1]; single 15 mg/kg PO, at 4 hr) was 83%, the “maximum serum RBP4 reduction” value (serum RBP4 [1]; single 25 mg/kg PO, at 6 hr timepoint) was 86% and the “maximum serum RBP4 reduction” value (serum RBP4 [1]; single 35 mg/kg PO, at 8 hr timepoint) was 89%. For the same molecule, the “serum RBP4 reduction at end of 8-week treatment” value (serum RBP4 [2]) was “Approximately 70%”, the IC50 (CYP2D6) was greater than 100 µM and the IC50 (CYP2C19) was greater than 20 µM. For the same molecule, the “A2E reduction vs control chow-treated Abca4−/− animals” value (A2E) was 69%.
